Calls of active or inactive are those of the source.
How the values were obtained:
[1] = cytotoxicity toward NIH3T3 fibroblasts, dose response, counter-screen, cell-based, ATP luminescence, mouse fibroblasts (AID 2010); assay type: functional;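 also: cells exposed to compound for about 90 hours before reading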
[2] = target: Neuropeptide Y receptor type 1 (Homo sapiens, UniProt P25929); experiment: Fluorescence-based counterscreen for agonists of NPY-Y2: cell-based high-throughput dose response assay for agonists of NPY-Y1.; assay type: functional
Sequence of Neuropeptide Y receptor type 1 (P25929 whole entry): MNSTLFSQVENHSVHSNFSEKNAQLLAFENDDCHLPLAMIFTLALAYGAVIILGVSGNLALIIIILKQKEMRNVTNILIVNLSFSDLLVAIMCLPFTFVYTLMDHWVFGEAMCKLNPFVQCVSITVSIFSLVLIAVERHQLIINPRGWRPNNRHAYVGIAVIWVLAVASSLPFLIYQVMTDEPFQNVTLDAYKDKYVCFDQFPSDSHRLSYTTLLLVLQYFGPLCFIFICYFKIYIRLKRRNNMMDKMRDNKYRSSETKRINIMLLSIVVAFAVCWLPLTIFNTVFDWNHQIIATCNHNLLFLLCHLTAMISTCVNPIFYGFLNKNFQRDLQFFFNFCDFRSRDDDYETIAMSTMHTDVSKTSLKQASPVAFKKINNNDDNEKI

[3] = inhibitors of intracellular T. cruzi replication, confirmation, NIH3T3 host cells, beta-gal luminescence (AID 2044); assay type: functional, cell-based;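 also: intracellular parasites grown in NIH/3T3 mouse fibroblasts as host cells; luminescent beta-galactosidase reporter signal from transgenic T. cruzi replicating inside host cells; inhibitors lower the luminescence signal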
[4] = target: T1, Heat shock factor protein 1 (Mus musculus, UniProt P38532); experiment: inhibition of MG132-induced HSE-luciferase signal, confirmation, cell-based, NIH3T3, luminescence, dose retest (AID 2382); assay type: functional;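 also: NIH3T3 fibroblasts with HSF1-driven luciferase reporter stressed by proteasome inhibitor MG132; luminescence from HSF1-driven luciferase expression after 8 hours of MG132 stress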
T1 sequence (P38532 whole entry): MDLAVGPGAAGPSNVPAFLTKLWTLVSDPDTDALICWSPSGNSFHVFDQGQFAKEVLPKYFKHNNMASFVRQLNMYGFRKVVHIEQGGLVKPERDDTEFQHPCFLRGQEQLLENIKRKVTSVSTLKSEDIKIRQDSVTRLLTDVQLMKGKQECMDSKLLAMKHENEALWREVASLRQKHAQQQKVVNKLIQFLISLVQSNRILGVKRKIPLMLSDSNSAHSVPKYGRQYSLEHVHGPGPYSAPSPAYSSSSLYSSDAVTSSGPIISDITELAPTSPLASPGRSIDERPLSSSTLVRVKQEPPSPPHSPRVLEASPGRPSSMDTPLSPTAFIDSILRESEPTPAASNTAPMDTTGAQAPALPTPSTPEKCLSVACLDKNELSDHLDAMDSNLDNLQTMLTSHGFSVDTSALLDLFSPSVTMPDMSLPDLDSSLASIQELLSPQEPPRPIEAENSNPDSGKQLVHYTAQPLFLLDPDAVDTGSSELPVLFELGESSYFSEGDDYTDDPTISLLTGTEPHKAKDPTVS

[5] = target: Neuropeptide Y receptor type 2 (Homo sapiens, UniProt P49146); experiment: Fluorescence-based cell-based high-throughput dose response assay for agonists of NPY-Y2. [Related pubchem assays: 1703 (Screening assay (CNGC inhibitors).), 1359 (Screening assay (NPY-Y2 potentiators or agonists).), 1304 (Screening assay (NPY-Y1 potentiators or agonists).), 1710 (Screening assay (NPY-Y2 agonists).), 1791 (Summary AID.)]; assay type: functional
Sequence of Neuropeptide Y receptor type 2 (P49146 whole entry): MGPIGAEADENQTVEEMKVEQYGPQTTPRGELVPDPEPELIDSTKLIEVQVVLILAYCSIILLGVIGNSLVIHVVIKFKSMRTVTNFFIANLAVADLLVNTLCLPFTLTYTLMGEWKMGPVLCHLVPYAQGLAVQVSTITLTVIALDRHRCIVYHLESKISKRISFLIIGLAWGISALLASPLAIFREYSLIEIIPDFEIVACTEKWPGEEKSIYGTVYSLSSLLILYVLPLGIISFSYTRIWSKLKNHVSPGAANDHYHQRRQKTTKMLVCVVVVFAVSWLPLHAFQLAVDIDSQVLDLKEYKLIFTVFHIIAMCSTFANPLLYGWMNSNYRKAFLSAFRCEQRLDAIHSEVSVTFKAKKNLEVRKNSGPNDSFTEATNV

HEK293 = experiment: Fluorescence-based counterscreen for potentiators or agonists of NPY-Y2: cell-based high-throughput dose response assay to identify inhibitors of cyclic nucleotide gated ion channel (CNGC) activity. In this assay, the parental HEK293 cell line transfected with a cyclic-nucleotide gated ion channel (CNGC)-based cAMP sensor is used to measure inhibition of isoproterenol-induced CNGC activity by test compound.; assay type: functional; settings: Homo sapiens;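 also: stimulus is 1 µM isoproterenol at EC100 plus PDE inhibitor Ro 20-1724 at 25 µM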
Wee1-like protein kinase = Wee1-like protein kinase (Homo sapiens, UniProt P30291); experiment: Dose Response Cell-based Assay for Inhibitors of Wee1 Degradation. [Related pubchem assays: 1410, 1321 ]; assay type: functional
Sequence of Wee1-like protein kinase (P30291 whole entry): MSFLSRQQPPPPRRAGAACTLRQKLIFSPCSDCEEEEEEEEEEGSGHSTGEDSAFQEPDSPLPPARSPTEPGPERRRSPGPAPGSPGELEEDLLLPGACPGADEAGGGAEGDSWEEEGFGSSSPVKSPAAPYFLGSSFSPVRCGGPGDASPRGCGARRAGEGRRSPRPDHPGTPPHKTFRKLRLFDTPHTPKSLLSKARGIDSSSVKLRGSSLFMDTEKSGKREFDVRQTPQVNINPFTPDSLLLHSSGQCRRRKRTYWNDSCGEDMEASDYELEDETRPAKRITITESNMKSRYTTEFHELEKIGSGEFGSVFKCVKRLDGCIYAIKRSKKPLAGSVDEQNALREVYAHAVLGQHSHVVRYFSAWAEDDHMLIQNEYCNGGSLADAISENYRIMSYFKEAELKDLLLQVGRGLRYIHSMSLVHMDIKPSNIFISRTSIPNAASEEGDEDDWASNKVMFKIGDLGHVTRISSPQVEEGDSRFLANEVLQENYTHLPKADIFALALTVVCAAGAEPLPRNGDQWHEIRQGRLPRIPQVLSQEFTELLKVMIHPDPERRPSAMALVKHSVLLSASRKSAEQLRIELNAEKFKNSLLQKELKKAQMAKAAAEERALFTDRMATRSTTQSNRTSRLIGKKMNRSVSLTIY

HeLa = experiment: Cytotoxicity counterscreen assay for transcriptional activators of heat shock protein 70 (Hsp70). [Related pubchem assays: 1203, 1252 ]; assay type: functional; settings: Homo sapiens;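 also: cells exposed to compound for 16 hours before readout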
BJ [6] = experiment: cytotoxicity toward BJ-TERT-LT-ST fibroblasts, dose response, cell-based, RAS-independent, luminescence (AID 1935); assay type: functional; settings: Homo sapiens;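 also: BJ fibroblasts immortalized with TERT plus LT and ST oncogenes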
[7] = cytotoxicity toward DRD oncogenic fibroblasts, dose response, cell-based, non-viral oncogenic, luminescence (AID 1934); assay type: functional; settings: Homo sapiens
[8] = target: G2/mitotic-specific cyclin-B1 (Homo sapiens, UniProt P14635); experiment: Counterscreen assay for inhibitors of Wee1 degradation: dose response cell-based assay to identify inhibitors of cyclin B degradation. [Related pubchem assays: 1410, 1321 ]; assay type: functional
Sequence of G2/mitotic-specific cyclin-B1 (P14635 whole entry): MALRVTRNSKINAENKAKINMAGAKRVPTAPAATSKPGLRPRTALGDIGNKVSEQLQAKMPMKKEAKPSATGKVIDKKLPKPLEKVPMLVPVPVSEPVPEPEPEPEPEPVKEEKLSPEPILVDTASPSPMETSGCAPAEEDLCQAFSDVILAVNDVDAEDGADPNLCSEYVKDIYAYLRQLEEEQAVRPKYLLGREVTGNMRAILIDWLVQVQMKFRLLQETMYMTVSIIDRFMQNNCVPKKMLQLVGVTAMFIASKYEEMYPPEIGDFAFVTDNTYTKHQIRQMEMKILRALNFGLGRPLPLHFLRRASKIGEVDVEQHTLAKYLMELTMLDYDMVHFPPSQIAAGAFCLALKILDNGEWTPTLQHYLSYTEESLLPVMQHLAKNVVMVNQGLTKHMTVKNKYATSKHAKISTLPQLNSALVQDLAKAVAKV

[9] = target: E3 ubiquitin-protein ligase Mdm2 (Homo sapiens, UniProt Q00987); experiment: enhancers of MDM2-luciferase reporter signal, concentration-effect titration, project on inhibitors of MDM2 ubiquitin ligase, cellular assay, luminescent readout, 384-well plate format (AID 1394); assay type: functional;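 also: MDM2 E3 inhibitors raise luminescence so EC50 is for signal enhancement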
BJ [10] = experiment: cytotoxicity toward BJ-TERT fibroblasts, dose response, cell-based, RAS-independent, luminescence (AID 1933); assay type: functional; settings: Homo sapiens
BJ [11] = experiment: cells; assay type: functional, cell-based; settings: Homo sapiens
[12] = target: Lysosomal acid glucosylceramidase (Homo sapiens, UniProt P04062); experiment: Dose response cell-based high throughput screening assay to identify enhancers of beta-glucosidase activity. [Related pubchem assays: 784 ]; assay type: functional
Sequence of Lysosomal acid glucosylceramidase (P04062 whole entry): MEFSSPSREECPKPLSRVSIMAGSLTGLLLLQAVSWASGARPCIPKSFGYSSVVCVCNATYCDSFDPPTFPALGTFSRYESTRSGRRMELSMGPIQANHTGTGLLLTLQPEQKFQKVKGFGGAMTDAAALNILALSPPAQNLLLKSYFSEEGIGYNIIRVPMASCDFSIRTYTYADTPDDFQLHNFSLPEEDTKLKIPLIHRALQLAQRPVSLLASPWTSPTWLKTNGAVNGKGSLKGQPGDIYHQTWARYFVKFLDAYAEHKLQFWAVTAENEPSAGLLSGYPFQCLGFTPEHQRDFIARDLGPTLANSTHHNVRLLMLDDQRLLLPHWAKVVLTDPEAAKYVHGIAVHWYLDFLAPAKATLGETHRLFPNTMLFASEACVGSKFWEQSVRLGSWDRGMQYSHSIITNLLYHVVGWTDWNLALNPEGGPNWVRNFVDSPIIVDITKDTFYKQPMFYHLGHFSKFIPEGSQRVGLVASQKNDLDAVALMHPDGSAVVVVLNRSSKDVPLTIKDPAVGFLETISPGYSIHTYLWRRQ

[13] = target: T2, Heat shock 70 kDa protein 1A (Homo sapiens, UniProt P0DMV8); experiment: Hsp70 inhibitors, biochemical, TR-FRET (AID 786)
T2 sequence (P0DMV8 whole entry): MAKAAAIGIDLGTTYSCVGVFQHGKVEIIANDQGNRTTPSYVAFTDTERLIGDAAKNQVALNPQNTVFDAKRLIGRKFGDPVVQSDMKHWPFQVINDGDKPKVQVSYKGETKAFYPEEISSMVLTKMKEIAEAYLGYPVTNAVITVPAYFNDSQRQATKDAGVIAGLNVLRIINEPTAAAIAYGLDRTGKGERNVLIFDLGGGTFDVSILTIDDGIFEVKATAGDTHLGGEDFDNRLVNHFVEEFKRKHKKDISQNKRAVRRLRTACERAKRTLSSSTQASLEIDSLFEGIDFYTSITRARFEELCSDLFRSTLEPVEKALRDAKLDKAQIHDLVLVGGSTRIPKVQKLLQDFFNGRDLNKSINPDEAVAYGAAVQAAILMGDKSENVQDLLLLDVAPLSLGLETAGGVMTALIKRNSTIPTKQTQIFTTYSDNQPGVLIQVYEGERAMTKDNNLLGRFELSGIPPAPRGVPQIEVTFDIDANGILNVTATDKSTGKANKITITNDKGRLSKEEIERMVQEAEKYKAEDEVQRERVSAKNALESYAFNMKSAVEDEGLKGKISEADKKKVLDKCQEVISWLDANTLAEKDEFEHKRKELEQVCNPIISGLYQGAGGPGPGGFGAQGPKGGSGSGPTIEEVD

[14] = target: T2, Heat shock 70 kDa protein 1A; experiment: Hsp70 inhibitors, probe displacement, primary screen, biochemical, fluorescence polarization (AID 583)
[15] = target: T3, Carboxy-terminal domain RNA polymerase II polypeptide A small phosphatase 1 (Homo sapiens, UniProt Q9GZU7); experiment: inhibitors of CTDSP1, concentration-response testing, biochemical assay, absorbance-based, actives from ultra-high-throughput screening (AID 540297); assay type: functional
T3 sequence (Q9GZU7 whole entry): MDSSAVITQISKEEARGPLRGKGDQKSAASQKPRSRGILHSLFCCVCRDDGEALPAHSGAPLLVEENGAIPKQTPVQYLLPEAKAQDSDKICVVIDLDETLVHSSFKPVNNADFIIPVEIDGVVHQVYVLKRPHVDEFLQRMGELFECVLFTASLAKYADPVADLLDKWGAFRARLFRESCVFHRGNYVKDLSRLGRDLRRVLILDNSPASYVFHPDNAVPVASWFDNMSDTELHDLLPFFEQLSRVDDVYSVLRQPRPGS

[16] = target: Glyceraldehyde-3-phosphate dehydrogenase (Homo sapiens, UniProt P04406)
Sequence of Glyceraldehyde-3-phosphate dehydrogenase (P04406 whole entry): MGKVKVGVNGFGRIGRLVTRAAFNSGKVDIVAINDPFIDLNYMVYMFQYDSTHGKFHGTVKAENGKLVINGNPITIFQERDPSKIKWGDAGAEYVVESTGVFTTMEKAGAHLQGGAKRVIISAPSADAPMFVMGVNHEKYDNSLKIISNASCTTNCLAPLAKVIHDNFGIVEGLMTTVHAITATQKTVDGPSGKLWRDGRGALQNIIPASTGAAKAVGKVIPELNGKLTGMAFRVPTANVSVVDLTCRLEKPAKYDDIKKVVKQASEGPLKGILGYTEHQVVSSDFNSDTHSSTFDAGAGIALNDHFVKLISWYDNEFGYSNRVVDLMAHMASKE

[17] = target: T4, Dual specificity protein phosphatase 6 (Rattus norvegicus, UniProt Q64346);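 also: in vitro confirmatory secondary MKP-3 assay designed to detect irreversible or slow-binding inhibitors; recombinant His-tagged rat MKP-3 acting on the substrate OMFP; inhibitor potency from reduced phosphatase rate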
T4 sequence (Q64346 whole entry): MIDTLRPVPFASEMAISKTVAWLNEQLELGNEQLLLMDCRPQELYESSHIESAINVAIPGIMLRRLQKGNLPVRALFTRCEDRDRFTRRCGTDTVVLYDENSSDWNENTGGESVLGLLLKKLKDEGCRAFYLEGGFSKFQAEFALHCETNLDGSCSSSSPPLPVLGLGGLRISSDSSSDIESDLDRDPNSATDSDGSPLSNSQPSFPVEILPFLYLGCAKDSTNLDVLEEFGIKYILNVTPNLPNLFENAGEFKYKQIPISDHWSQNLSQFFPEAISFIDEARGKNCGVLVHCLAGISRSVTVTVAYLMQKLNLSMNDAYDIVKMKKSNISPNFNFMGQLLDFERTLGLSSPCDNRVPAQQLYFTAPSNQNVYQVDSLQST

Genome polyprotein = Genome polyprotein (dengue virus type 2, UniProt P29990); experiment: Dengue-2 NS5 methyltransferase inhibitors, primary screen, biochemical, confirmation dose response (AID 588689); assay type: functional
Sequence of Genome polyprotein (P29990 2492-3391 limits assumed): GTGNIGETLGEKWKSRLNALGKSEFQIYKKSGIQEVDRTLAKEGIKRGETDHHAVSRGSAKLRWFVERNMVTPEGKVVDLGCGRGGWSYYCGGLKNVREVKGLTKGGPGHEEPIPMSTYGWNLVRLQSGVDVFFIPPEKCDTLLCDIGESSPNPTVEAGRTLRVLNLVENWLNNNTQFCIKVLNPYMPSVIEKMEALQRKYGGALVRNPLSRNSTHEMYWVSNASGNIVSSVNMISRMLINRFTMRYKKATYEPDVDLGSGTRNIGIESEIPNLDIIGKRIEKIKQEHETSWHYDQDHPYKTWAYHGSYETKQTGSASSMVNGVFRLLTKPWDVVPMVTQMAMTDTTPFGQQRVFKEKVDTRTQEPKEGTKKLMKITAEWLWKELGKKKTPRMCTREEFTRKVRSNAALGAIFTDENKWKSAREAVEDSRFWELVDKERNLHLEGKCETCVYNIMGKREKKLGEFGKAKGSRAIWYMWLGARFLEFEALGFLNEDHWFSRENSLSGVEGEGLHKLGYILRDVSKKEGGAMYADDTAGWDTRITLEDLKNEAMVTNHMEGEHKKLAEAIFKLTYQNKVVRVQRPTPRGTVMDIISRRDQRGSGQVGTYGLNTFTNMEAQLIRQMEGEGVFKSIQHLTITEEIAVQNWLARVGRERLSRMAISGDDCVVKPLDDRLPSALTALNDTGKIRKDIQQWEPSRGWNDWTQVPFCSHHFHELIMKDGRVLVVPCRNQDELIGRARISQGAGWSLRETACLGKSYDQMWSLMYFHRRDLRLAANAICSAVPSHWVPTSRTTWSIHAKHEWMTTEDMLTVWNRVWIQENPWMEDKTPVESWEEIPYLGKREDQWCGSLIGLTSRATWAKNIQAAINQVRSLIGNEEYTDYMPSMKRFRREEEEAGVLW

[18] = target: Induced myeloid leukemia cell differentiation protein Mcl-1 (Homo sapiens, UniProt Q07820); assay type: functional
Sequence of Induced myeloid leukemia cell differentiation protein Mcl-1 (Q07820 whole entry): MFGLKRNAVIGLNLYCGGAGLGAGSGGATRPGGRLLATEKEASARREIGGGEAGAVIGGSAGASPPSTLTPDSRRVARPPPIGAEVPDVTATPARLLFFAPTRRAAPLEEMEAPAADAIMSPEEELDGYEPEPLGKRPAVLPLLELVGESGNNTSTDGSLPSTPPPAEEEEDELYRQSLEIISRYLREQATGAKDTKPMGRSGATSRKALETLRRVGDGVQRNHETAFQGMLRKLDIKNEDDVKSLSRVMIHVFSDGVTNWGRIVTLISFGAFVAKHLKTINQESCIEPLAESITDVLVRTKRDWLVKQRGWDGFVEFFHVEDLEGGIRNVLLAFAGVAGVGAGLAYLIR

[19] = target: T5, Tyrosine-protein phosphatase non-receptor type 7 (Homo sapiens, UniProt P35236); assay type: functional
T5 sequence (P35236 whole entry): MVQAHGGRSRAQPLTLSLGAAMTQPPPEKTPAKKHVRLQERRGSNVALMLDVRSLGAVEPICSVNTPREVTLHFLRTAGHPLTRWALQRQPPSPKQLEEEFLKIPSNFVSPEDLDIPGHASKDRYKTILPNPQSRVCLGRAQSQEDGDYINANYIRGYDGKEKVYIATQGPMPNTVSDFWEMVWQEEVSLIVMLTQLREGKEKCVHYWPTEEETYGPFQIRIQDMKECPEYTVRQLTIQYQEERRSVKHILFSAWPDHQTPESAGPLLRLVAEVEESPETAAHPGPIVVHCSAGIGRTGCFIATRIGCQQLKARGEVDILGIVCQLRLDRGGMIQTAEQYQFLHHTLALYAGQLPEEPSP

For `COc1ccc2c(c1)c(CC(=O)Nc1nnc(C3CC3)s1)c(C)n2C(=O)c1ccc(Cl)cc1`, the EC50 [1] was 5.09 µM (active), the EC50 [2] was > 35.4 µM (not active) and the EC50 [3] was 2.28 µM (active). The EC50 [4] was 21.6 µM (active), the EC50 [5] was > 35.4 µM (not active) and the EC50 (HEK293) was > 35.4 µM (not active).
With `C=CS(=O)(=O)c1ccc(Oc2ccc(S(=O)(=O)C=C)cc2)cc1` the EC50 (Wee1-like protein kinase) was > 49.7 µM (not active), the CC50 (HeLa) was > 1.22 µM (not active) and the EC50 (BJ [6]) was > 150 µM (inconclusive). For the same compound, the EC50 [7] was 3.83 µM (active), the EC50 [8] was > 5.53 µM (active) and the EC50 [9] was 2.64 µM (active). The EC50 (BJ [10]) was 2.24 µM (inconclusive) and the EC50 (BJ [11]) was > 150 µM (inconclusive).
In the case of `CCCCN(CC)CCCNC(=O)c1cc2cc3ccc(OC)cc3nc2o1`, the EC50 [12] is reported as > 50 µM (not active).
For `Cc1ccc(OCCN2CCN(C(=O)CCC(=O)Nc3nnc(C)s3)CC2)cc1`, the IC50 [13] was > 100 µM (not active) and the IC50 [14] was > 100 µM (not active).
With `Cc1ccc2c(c1Cl)NC(C(=O)O)C1CC(Sc3ccccc3[N+](=O)[O-])C(Cl)C21` (stereo not drawn) the IC50 [15] was 2.97 µM (active), the IC50 [16] was > 100 µM (not active) and the IC50 [17] was 42.6 µM (active). The IC50 (Genome polyprotein) was 76.9 µM (active), the IC50 [18] was 2.96 µM (active) and the IC50 [19] was 13.7 µM (active).

Source: ChEMBL document CHEMBL1201862, “PubChem BioAssay data set” (2004)
